The target in assay [1] is T1, Endoribonuclease toxin MazF (Escherichia coli K-12, UniProt P0AE70).
T1 sequence (P0AE70 whole entry): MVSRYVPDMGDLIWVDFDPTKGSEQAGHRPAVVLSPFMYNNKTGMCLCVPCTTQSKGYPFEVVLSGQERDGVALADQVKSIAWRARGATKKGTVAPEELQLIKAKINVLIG
The experiment in a line: MazEF toxin-antitoxin RNase activation – biochemical, fluorescence, single-stranded RNA substrate, SAR follow-up (AID 588603). The assay is classed as functional.

The target in assay [2] is T1, Endoribonuclease toxin MazF. Kind of assay: activation of MazEF endoribonuclease cleavage – biochemical, fluorescence, single-stranded RNA substrate, uHTS hits, dose response (AID 588481). Type of assay: functional.
Assay [3] deals with MEF. The experiment in a line: SAR analysis of small molecule cytotoxicity of MazEF TA System activators in embryonic fibroblast (MEF) cells. [Related pubchem assays (depositor defined):AID504720, AID504743]. The settings on record: Mus musculus. The assay is classed as functional.
Assay [4] deals with T1, Endoribonuclease toxin MazF. The experiment in a line: SAR analysis of small molecule activators of the MazEF TA System via a fluorescence-based single-stranded RNase assay counterscreen. [Related pubchem assays (depositor defined):AID504720, AID504743]. The assay is classed as functional. (In general: Counterscreens check selectivity or assay interference.)
For assay [5] the target is unchanged. Kind of assay: substrate-only fluorescence increase artefacts – biochemical, single-stranded RNase substrate, counter-screen for MazEF activator project, dose response (AID 588502). The assay is classed as functional.
Assay [6] can be described thus: THP-1 cell cytotoxicity, cytotoxicity control, set 4 (AID 504911). Type of assay: functional. The note with it: Mycobacterium tuberculosis.
A short description of assay [7]: THP-1 cell cytotoxicity, dose response, cytotoxicity control, set 3 (AID 504852). Type of assay: functional. The note with it: Mycobacterium tuberculosis.
Assay [8] is described as follows: Vero cell cytotoxicity, dose response, cytotoxicity control for M. tuberculosis growth inhibitor project, Vero cells, purified and synthesized compounds, set 4 (AID 504854). Type of assay: functional. The note with it: Mycobacterium tuberculosis.
The target in assay [9] is T2, High affinity choline transporter 1 (Homo sapiens, UniProt Q9GZV3).
T2 sequence (Q9GZV3 whole entry): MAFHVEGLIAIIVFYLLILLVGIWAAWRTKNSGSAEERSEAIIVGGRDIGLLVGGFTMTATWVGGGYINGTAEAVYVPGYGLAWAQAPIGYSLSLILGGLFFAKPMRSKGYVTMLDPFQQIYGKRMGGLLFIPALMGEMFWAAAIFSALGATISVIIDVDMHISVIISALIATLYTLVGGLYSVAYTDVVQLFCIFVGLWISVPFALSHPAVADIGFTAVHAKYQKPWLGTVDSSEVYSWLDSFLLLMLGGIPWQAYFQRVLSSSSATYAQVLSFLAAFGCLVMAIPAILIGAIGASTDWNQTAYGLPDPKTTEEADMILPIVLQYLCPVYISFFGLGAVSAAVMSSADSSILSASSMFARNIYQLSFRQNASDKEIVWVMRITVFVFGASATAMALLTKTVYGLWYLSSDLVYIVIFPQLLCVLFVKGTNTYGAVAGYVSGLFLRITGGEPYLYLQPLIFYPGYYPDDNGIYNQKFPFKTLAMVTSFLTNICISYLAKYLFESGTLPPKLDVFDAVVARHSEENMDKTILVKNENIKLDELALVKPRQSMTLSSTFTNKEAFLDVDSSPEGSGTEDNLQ
Kind of assay: human choline transporter potentiators, potency – cell-based, 10-point CRC, membrane potential dye, dose response (AID 602376). The assay is classed as functional.

The nature of assay [10]: viability of PTEN-deleted HCT116 cells – cell-based, HCT116 PTEN knockout, dose response (AID 1047).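 Also: HCT116 colon tumor cells with PTEN knocked out; cells exposed to compound for 60 hours before readout.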 Type of assay: functional.
The nature of assay [11]: viability of HCT116 lacking mutant beta-catenin – cell-based, human colon tumor, dose response (AID 1045).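 Also: HCT116 colon tumor cells with beta catenin knocked out; cells exposed to compound for 60 hours.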 Type of assay: functional.
Assay [12] deals with T3, Mannose-6-phosphate isomerase (Homo sapiens, UniProt P34949).
T3 sequence (P34949 whole entry): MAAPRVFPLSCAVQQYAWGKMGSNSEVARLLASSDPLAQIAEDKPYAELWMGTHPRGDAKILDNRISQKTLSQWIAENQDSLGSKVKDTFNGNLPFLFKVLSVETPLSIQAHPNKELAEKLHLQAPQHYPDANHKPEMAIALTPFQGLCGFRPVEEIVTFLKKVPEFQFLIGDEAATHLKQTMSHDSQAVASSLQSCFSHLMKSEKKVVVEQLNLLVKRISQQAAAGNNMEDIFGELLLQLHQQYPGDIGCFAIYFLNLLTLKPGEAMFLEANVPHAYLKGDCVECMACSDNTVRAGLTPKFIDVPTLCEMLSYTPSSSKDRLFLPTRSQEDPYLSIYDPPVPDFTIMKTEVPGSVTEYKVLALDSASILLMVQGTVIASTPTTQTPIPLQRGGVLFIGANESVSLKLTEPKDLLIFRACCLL
Kind of assay: MPI inhibition at elevated mannose 6-phosphate – biochemical, fluorescence intensity, high mannose 6-phosphate, primary screen (AID 1220).

The subject of assay [13] is Vero. Kind of assay: viability of Vero cells under compound – cytotoxicity control for flavivirus capping enzyme inhibitors (AID 588742). Type of assay: functional. The settings on record: Chlorocebus sabaeus.
For assay [14], the target named is Protein Tat (Human immunodeficiency virus type 1 group M subtype B (isolate HXB2)(HIV-1), UniProt P04608). The assay is classed as functional.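 Also: tat binding to TAR RNA read out by fluorescence polarization.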
Assay [15] is described as follows: viability loss in THP-1 monocytes – THP-1 cells, cytotoxicity control for Vif-APOBEC3G degradation inhibitor project, dose response (AID 1117359). Type of assay: functional. The settings on record: THP-1.
Assay [16] concerns CHO. Kind of assay: CHO cell viability loss, potency – luminescence, cytotoxicity control for TLR9-MyD88 binding inhibitor project, dose response (AID 588339).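 Also: CHO cells stably coexpressing TLR9 and MyD88 fusions from primary screen; compound exposure lasted 48 hours before viability readout.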 The assay is classed as functional, cell-based, hamster. The note with it: Cricetulus griseus.
Assay [17] has as its target Beta Lactamase (Pseudomonas aeruginosa, UniProt Q932Y6). The experiment in a line: BLA reporter interference, concentration series – BLA reporter cells, FRET fluorescence, artefact control for TLR9-MyD88 binding inhibitor project, dose response (AID 588341).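 Also: cell based assay in CHO-K1 cells stably expressing beta-lactamase.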 The assay is classed as cell-based.
The target in assay [18] is Nonstructural protein 1 (Influenza A virus, UniProt Q194T2). Type of assay: functional, Influenza A virus (A/California/07/2009(H1N1)).
Assay [19] concerns the target Heat shock protein HSP 90-alpha (Homo sapiens, UniProt P07900). Type of assay: functional, organism-based.
For assay [20], the system named is Vero. The experiment in a line: Vero E6 cell cytotoxicity, dose response, cytotoxicity control (AID 540298). The note with it: Chlorocebus sabaeus. Type of assay: functional.
For assay [21], the system named is MDCK. Kind of assay: MDCK cell cytotoxicity, dose response, cytotoxicity control (AID 540296). Type of assay: functional. The settings on record: Canis lupus familiaris.
Assay [22] deals with Delta-type opioid receptor (Homo sapiens, UniProt P41143). Kind of assay: Counterscreen for agonists of heterodimerization of the mu 1 (OPRM1) and delta 1 (OPRD1) opioid receptors: Luminescence-based cell-based high throughput dose response assay to identify agonists of OPRD1 homodimerization. [Related pubchem assays (depositor defined):AID504326, AID504355, AID504692, AID504904, AID504905]. Type of assay: functional.

Assay [23] has as its system MDCK. The experiment in a line: antiviral activity against H1N1 influenza, dose response, cell-based, strain KY136 (AID 540257). The assay is classed as functional. The note with it: Canis lupus familiaris.
The target of assay [24] is Mu-type opioid receptor (Homo sapiens, UniProt P35372). Kind of assay: Counterscreen for agonists of heterodimerization of the mu 1 (OPRM1) and delta 1 (OPRD1) opioid receptors: Luminescence-based cell-based high throughput dose response assay to identify agonists of OPRM1 homodimerization. The assay is classed as functional.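 Also: U2OS cells expressing OPRM1 and beta-arrestin as split beta-galactosidase partners.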
The target of assay [25] is 5-hydroxytryptamine receptor 5A (Homo sapiens, UniProt P47898). Kind of assay: Counterscreen for agonists of OPRM1-OPRD1 heterodimerization: luminescence-based cell-based high throughput dose response assay to identify agonists of 5-hydroxytryptamine (serotonin) 5A receptor (HTR5A). [Related pubchem assays (depositor defined):AID504326, AID504355, AID504692, AID504904, AID504905]. The assay is classed as functional.

The subject of assay [26] is INS1. Kind of assay: beta-cell survival under cytokine stress – INS-1E, ATP luminescence, dry powder, dose response (AID 488844). The assay is classed as functional, cell-based. The note with it: Rattus norvegicus.
Assay [27] in a line: suppression of NO production in INS-1E cells – cell-based, Griess absorbance, dry powder, set 3, dose response (AID 488870). Type of assay: functional. The settings on record: Rattus norvegicus. For orientation: Griess reagent forms a coloured azo dye with nitrite.
In assay [28] the test system is INS1. The experiment in a line: suppression of NO production in INS-1E cells – cell-based, Griess absorbance, dry powder, dose response (AID 488866). The assay is classed as functional. The settings on record: Rattus norvegicus.
Assay [29] has as its system INS1. Kind of assay: suppression of NO production in INS-1E cells – cell-based, Griess absorbance, dry powder, set 2, dose response (AID 488868). Type of assay: functional. The settings on record: Rattus norvegicus.
Assay [30] has as its system INS1. The experiment in a line: INS-1E mitochondrial potential rescue under cytokines – cell-based, JC-1 fluorescence ratio, dry powder, dose response (AID 488931). Type of assay: functional. The note with it: Rattus norvegicus.
The target in assay [31] is Serine/threonine-protein kinase PLK3 (Homo sapiens, UniProt Q9H4B4). Type of assay: functional.
Assay [32] addresses Serine/threonine-protein kinase PLK4 (Homo sapiens, UniProt O00444). The assay is classed as functional.
In assay [33] the target is Interleukin-1 receptor-associated kinase 1 (Homo sapiens, UniProt P51617). Type of assay: functional.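 Also: IRAK1 tested as one member of a kinome panel.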

Active and inactive are the calls of the source.

What is called EC50 is the midpoint of the concentration-response curve. What is called CC50 is the concentration giving 50% cytotoxicity. The term IC50 denotes the concentration at which inhibition is half-maximal. As usually defined, the AC50 is the concentration at which the activity in the assay is half-maximal. Usually Ki stands for the dissociation constant of the complex between target and ligand, obtained from inhibition or displacement.

Chain of 5-hydroxytryptamine receptor 5A (P47898 whole entry): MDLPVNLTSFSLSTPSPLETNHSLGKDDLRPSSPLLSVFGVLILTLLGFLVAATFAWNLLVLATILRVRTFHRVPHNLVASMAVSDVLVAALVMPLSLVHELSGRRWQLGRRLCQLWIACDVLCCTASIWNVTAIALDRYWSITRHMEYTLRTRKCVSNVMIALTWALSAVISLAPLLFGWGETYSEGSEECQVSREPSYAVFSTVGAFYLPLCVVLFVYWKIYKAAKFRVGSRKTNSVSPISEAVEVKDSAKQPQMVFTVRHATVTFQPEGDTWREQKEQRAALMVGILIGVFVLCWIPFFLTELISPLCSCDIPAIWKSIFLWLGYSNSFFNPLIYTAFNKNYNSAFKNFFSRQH
Chain of Interleukin-1 receptor-associated kinase 1 (P51617 whole entry): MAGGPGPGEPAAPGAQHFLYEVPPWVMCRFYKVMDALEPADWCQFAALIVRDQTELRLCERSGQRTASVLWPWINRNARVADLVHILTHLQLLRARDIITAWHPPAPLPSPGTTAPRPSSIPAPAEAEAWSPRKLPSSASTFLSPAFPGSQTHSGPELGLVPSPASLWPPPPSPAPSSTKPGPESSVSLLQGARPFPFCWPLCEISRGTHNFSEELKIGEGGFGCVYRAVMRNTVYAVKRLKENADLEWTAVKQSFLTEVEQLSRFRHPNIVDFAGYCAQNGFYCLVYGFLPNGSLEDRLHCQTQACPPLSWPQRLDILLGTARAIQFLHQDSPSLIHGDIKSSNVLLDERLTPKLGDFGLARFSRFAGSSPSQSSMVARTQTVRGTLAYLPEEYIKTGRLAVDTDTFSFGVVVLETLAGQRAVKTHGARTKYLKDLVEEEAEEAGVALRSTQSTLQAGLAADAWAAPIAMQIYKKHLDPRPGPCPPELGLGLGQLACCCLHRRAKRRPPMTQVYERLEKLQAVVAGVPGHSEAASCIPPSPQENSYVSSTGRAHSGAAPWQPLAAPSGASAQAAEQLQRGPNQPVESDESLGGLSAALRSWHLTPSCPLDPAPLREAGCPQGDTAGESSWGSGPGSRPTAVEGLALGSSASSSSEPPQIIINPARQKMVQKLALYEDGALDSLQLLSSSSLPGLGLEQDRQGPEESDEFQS
Chain of Serine/threonine-protein kinase PLK4 (O00444 whole entry): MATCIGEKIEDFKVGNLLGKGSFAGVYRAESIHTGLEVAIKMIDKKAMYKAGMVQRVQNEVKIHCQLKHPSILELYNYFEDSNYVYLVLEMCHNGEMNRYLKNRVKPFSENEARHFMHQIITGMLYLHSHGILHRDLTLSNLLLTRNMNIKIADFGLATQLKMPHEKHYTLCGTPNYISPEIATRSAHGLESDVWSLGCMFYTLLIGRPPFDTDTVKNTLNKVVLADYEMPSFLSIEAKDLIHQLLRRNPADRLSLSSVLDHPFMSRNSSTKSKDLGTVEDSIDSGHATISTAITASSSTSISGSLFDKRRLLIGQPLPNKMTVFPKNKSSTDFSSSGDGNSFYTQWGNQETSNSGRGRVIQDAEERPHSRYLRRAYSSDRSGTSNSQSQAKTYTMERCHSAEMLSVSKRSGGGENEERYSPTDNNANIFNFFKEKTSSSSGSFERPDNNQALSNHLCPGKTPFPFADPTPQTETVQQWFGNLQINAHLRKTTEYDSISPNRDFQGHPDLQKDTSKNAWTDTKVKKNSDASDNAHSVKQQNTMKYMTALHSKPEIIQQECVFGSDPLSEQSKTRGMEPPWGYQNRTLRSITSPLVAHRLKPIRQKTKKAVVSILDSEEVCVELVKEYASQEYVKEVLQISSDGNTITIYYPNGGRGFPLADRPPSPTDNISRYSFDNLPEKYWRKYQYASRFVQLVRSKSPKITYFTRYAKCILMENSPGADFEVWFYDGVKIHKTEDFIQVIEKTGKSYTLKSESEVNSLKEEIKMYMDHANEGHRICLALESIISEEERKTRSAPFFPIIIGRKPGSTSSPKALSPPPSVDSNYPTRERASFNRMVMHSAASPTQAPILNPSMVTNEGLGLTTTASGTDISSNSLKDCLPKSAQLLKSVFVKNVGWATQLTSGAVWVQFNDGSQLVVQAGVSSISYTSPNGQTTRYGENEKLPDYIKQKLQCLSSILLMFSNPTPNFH
Chain of Beta Lactamase (Q932Y6 whole entry): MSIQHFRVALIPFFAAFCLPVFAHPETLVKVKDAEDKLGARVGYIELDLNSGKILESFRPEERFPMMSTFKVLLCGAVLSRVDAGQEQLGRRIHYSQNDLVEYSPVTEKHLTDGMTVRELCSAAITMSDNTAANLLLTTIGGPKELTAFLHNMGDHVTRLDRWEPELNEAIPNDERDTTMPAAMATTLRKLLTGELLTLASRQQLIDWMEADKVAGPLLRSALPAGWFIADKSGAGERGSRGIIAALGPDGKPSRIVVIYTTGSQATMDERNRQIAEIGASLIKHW
Chain of Protein Tat (P04608 whole entry): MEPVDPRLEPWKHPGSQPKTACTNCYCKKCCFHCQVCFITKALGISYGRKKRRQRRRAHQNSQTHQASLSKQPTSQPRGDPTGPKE
Chain of Nonstructural protein 1 (Q194T2 whole entry): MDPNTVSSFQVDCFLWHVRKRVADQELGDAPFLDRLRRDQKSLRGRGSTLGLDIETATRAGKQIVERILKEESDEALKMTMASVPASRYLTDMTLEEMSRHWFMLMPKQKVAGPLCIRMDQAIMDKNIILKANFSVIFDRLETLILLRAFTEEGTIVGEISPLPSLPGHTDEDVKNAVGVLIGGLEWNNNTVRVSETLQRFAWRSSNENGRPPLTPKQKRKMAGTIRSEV
Chain of Mu-type opioid receptor (P35372 whole entry): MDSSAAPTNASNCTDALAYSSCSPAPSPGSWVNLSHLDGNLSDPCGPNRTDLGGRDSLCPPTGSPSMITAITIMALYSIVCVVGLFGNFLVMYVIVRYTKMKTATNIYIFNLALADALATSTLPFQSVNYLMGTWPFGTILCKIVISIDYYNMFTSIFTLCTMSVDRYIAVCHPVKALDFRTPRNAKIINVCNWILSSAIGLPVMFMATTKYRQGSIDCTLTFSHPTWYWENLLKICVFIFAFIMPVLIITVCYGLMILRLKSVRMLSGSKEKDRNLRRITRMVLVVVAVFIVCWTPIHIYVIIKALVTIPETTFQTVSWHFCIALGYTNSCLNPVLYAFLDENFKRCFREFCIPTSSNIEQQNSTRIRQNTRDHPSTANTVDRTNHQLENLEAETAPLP
Chain of Serine/threonine-protein kinase PLK3 (Q9H4B4 whole entry): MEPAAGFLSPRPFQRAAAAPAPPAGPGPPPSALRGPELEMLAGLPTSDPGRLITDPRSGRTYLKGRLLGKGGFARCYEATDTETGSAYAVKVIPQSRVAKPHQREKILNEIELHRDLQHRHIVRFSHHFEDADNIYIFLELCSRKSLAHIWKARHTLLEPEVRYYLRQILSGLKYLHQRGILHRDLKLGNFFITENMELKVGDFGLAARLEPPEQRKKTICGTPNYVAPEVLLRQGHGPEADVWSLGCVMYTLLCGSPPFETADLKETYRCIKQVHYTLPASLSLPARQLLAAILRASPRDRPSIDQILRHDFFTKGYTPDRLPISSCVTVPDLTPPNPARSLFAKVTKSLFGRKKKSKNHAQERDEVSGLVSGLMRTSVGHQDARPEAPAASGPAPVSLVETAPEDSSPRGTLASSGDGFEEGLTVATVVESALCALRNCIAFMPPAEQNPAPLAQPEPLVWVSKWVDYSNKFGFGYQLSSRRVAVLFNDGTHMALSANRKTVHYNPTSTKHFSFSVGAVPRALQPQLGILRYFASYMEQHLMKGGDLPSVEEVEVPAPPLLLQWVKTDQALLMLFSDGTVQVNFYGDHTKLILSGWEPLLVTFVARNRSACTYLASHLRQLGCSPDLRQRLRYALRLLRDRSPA
Chain of Delta-type opioid receptor (P41143 whole entry): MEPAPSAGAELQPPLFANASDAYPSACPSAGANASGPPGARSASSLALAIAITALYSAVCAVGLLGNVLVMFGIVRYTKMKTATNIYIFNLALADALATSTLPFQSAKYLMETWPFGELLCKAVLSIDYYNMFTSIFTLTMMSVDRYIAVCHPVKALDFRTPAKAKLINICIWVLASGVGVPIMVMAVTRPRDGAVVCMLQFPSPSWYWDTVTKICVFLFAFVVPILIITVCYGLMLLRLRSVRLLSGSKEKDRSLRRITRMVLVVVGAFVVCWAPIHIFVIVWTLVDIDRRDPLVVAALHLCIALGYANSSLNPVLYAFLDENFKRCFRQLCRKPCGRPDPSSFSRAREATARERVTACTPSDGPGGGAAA

Turning to `N#Cc1ccc(N2C(=O)[C@@H]3C(C(=O)c4ccc5ccccc5n4)=NN[C@@H]3C2=O)cc1`, the EC50 is 7.74 µM (active) in [1], 15.1 µM (active) in assay [2], > 99 µM (inactive) in assay [4] and 0.271 µM (active) in assay [5]. Moreover, in assay [3], the CC50 is > 99 µM (inactive).
As to `COC(=O)C(C)Oc1ccc(Cc2ncc(C(F)(F)F)cc2Cl)cc1` (stereo not drawn), the CC50 in assay [6], in assay [7] and in [8] was > 100 µM (active) throughout.
`CN(Cc1cccc(F)c1)C(=O)c1ccccc1Sc1ccccc1C#N`: in [9], the EC50 is 15 µM (active).
For `CCOc1cccc(CNc2ccc(O)cc2)c1OCc1ccc(Cl)cc1`, the values for the EC50 in [10] and in assay [11] were 25.2 µM (active) and 29.4 µM (active), respectively. Further, the IC50 was > 50 µM (not active) in assay [12] and 86 µM (inconclusive) in assay [14]. Moreover, the CC50 in assay [13] is > 40 µM (active); in assay [15], 37 µM (active).
Consider `Nc1ccc2c(c1)Cc1cc([N+](=O)[O-])ccc1-2`, for which the IC50 in assay [16] was > 49.8 µM (inactive); in assay [17], 6.37 µM (active).
`O=C(C=P(c1ccccc1)(c1ccccc1)c1ccccc1)c1ccccc1-c1ccccc1C(=O)C=P(c1ccccc1)(c1ccccc1)c1ccccc1`: the values for the IC50 in [18] and in assay [23] were 58.5 µM (active) and 2.54 µM (active), respectively. Besides, in [19], the concentration at half-maximal activity (AC50) was 8.19 µM (active). In addition, the CC50 in assay [20] was 3.43 µM (active); in [21], 6.63 µM (active). For the same molecule, the EC50 in [22], in assay [24] and in [25] was > 92.5 µM (inactive) in each case.
As for `COc1ccc(S(=O)(=O)N(C)C[C@@H]2Oc3c(NC(=O)Nc4cccc5ccccc45)cccc3C(=O)N([C@@H](C)CO)C[C@H]2C)cc1Cl`, the AC50 is 27.3 µM (active) in assay [26]; 52.8 µM (active) in assay [27]; 46.3 µM (active) in [28]; 39.5 µM (active) in assay [29]; 147 µM (active) in assay [30].
In the case of `CCCn1c(=O)c2[nH]c(-c3cnn(Cc4cccc(C(F)(F)F)c4)c3)nc2n(CC)c1=O` [GS 6201], the Ki in assay [31] was 7.94 µM (active); in assay [32], 3.98 µM (active); in assay [33] it was 7.94 µM (active).

The values are drawn from ChEMBL document CHEMBL1201862, “PubChem BioAssay data set” (2004).
